According to US20220056043A1, “NITROGEN-CONTAINING FUSED CYCLIC COMPOUND, PREPARATION METHOD THEREFOR AND USE THEREOF” (SICHUAN KELUN-BIOTECH BIOPHARMACEUTICAL CO., LTD., priority 2019, published 2022):

Legend:
THP1-defNLRP3 cells = assay: Agonistic effect on the expression of IL-1β in NLRP3 deficient THP1 cells (THP1-defNLRP3) after PMA-induced differentiation (HTRF); assay type: cell-based, human; conditions: Homo sapiens, THP-1; IL-1β level, PMA-differentiated NLRP3 deficient THP1 cells, 6 hours; highest test concentration 30 μM; read-out: hNLRP3 EC50 (μM) (THP-1defNLRP3)
Description: Experimental Example 2: Agonistic Effect of the Compound of the Invention on the Expression of IL-1β in NLRP3 Deficient THP1 Cells (THP1-defNLRP3 Cells) after PMA-Induced Differentiation
In this test, a HTRF detection method was used to test the effect of the compound of the invention on the level of IL-1β in THP1-defNLRP3 cells to evaluate the specificity of the agonistic effect of the compound on hNLRP3 inflammasome or hNLRP3 inflammasome pathway.
Reagents: as described in Experimental Example 1
Cell: THP1-defNLRP3 (InvivoGen)
Kit: IL-1β assay kit (CISBIO)
1) THP1-defNLRP3 cells in a logarithmic growth phase were seeded in a T75 culture flask at a density of 5×10^5 cells/well, and cultured in a cell incubator at 37° C., 5% CO2 for 24 hours, and then 1 μM PMA was used to induce THP1-defNLRP3 suspension cells to become adherent macrophages. The medium was RPMI 1640 containing 10% heat-inactivated FBS and 0.05 mM β-mercaptoethanol.
2) The cells were induced and cultured for 24 hours. Then the adherent cells were trypsinized and centrifuged at 1000 rpm for 5 min. The supernatant was removed, and the cells were resuspended to a density of 2×10^6 cells/mL in RPMI 1640 medium containing 2% heat-inactivated FBS. 50 μL/well of the cell resuspension was taken and spread on a 96-well plate such that the number of cells in each well was 1×10^5.
3) An appropriate amount of 10 mM DMSO solution of the compound to be tested was taken and diluted to a concentration of 2× test concentration with RPMI 1640 medium containing 2% heat-inactivated FBS. 50 μL/well of the dilution was added to the cells in the 96-well plate, and mixed well. The plate was incubated in a cell incubator at 37° C., 5% CO2 for 6 hours. The supernatant was collected, and the level of IL-1β was measured in accordance with the instructions of the IL-1β detection kit.
4) EC50 was fitted by the GraphPad software log(agonist) vs. response—Variable slope four-parameter method.

hTLR7 = target: T1, hTLR7 (Homo sapiens, UniProt Q9NYK1); assay: Agonistic effect on hTLR7, HEK-hTLR7-NF-κB-Luciferase reporter cells; assay type: cell-based; conditions: 16 hours
T1 construct: host or cells: HEK-hTLR7-NF-κB-Luciferase cells
T1 sequence (Q9NYK1 27-1049): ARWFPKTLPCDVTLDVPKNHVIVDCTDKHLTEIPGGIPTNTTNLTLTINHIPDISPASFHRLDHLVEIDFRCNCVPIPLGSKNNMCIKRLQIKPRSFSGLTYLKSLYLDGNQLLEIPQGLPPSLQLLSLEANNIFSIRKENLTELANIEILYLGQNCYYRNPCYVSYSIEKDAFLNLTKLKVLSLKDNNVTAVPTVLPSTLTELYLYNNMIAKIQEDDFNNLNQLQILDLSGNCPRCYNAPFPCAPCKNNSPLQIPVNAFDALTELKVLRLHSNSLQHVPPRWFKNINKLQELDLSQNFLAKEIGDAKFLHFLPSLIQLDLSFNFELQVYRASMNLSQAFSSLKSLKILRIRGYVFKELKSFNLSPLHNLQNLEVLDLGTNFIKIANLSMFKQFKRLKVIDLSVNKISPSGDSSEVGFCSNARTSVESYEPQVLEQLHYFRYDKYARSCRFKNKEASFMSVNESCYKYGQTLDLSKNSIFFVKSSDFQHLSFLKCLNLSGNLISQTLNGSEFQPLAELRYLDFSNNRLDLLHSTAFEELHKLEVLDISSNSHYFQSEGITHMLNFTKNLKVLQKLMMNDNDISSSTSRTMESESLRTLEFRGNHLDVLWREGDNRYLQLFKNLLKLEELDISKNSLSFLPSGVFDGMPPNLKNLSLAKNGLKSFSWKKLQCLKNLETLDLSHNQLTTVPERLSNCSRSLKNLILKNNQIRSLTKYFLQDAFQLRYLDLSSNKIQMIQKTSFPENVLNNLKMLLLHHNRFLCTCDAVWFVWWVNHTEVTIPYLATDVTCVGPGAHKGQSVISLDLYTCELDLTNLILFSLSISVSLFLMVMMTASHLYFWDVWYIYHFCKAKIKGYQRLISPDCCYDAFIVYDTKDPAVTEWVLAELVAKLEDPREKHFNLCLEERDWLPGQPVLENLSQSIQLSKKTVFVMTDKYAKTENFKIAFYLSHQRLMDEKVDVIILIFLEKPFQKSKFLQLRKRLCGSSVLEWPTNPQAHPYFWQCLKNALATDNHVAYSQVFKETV
Description: Experimental Example 3: Agonistic Effect of the Compound of the Invention on hTLR7
In this test, the luciferase in HEK-hTLR7-NF-κB-reporter cells was detected to test the activating effect of the compound of the invention on TLR7 signaling pathway, so as to evaluate the specificity of the agonistic effect of the compound on NLRP3 pathway.
Reagents: DMEM (High glucose); FBS (fetal bovine serum) (Gibco); Bright-Glo™ Luciferase detection kit (Promega)
Cells: HEK-hTLR7-NF-κB-Luciferase gene cells (human TLR7 NF-κB-luciferase reporter gene cells) (Nanjing Cobioer)
1) The HEK-hTLR7-NF-κB-Luciferase cells in a logarithmic growth phase were trypsinized and resuspended in the medium to a concentration of 2×10^6 cells/mL. 50 μL/well of the cell resuspension was added to a 96-well plate such that the number of cells in each well was […]. An appropriate amount of 10 mM DMSO solution of the compound to be tested was taken and diluted to a concentration of 2× test concentration with the medium. 50 μL/well was added to the cells in the 96-well plate, and the 96-well plate was incubated in an incubator at 37° C. and 5% CO2 for 16 hours. The medium was DMEM (High glucose) containing 10% FBS.
2) After the cell incubation, 100 μL/well of Bright-Glo™ Luciferase detection reagent was added, and the mixture was incubated at room temperature for 5 minutes. Relative luciferase activity unit (RLU) was read using a microplate reader.
3) The EC50 of effect of the tested compound to stimulate hTLR7 was fitted by the GraphPad software log(agonist) vs. response—Variable slope four-parameter method.

Structure (SMILES) | EC50 (THP1-defNLRP3 cells) [µM] | EC50 (hTLR7) [µM]
Nc1cc(NCC2CC2)c2sc(-c3ccn[nH]3)cc2n1 [Compound 102, N^7-(cyclopropylmethyl)-2-(1H-pyrazol-5-yl)thieno[3,2-b]pyridine-5,7-diamine] | > 30 | > 100
CN1CCC[C@@H](Nc2cc(N)nc3cc(-c4ccn[nH]4)sc23)C1 [Compound 104, (R)—N^7-(1-methylpiperidin-3-yl)-2-(1H-pyrazol-5-yl)thieno[3,2-b]pyridine-5,7-diamine] | > 30 | > 100
Nc1cc(NC[C@@H]2CCCO2)c2sc(-c3ccn[nH]3)cc2n1 [Compound 105, (S)-2-(1H-pyrazol-5-yl)-N^7-((tetrahydrofuran-2-yl)methyl)thieno[3,2-b]pyridine-5,7-diamine] | > 30 | > 100
Cn1cc(CNc2cc(N)nc3cc(-c4ccn[nH]4)sc23)cn1 [Compound 106, N^7-(1-methyl-1H-pyrazol-4-yl)methyl-2-(1H-pyrazol-5-yl)thieno[3,2-b]pyridine-5,7-diamine] | > 30 | > 100
C[C@@H](CO)Nc1cc(N)nc2cc(-c3ccn[nH]3)sc12 [Compound 108, (S)-2-((5-amino-2-(1H-pyrazol-5-yl)thieno[3,2-b]pyridin-7-yl)amino)propanol] | > 30 | > 100
Cn1cc(-c2cc3nc(N)cc(NCCCO)c3s2)cn1 [Compound 109, 3-((5-amino-2-(1-methyl-1H-pyrazol-4-yl)thieno[3,2-b]pyridin-7-yl)amino)-1-propanol] | > 30 | > 100
Nc1cc(NC2CCCC2)c2sc(-c3ccn[nH]3)cc2n1 [Compound 110, N^7-cyclopentyl-2-(1H-pyrazol-5-yl)thieno[3,2-b]pyridine-5,7-diamine] | > 30 | > 100
COC(C)(C)CNc1cc(N)nc2cc(-c3ccn[nH]3)sc12 [Compound 111, N^7-(2′-methoxy-2′-methylpropyl)-2-(1H-pyrazol-5-yl)thieno[3,2-b]pyridine-5,7-diamine] | > 30 | > 100
Nc1cc(NC2COC2)c2sc(-c3ccn[nH]3)cc2n1 [Compound 112, N^7-(oxetan-3-yl)-2-(1H-pyrazol-5-yl)thieno[3,2-b]pyridine-5,7-diamine] | > 30 | > 100
CCC(CC)Nc1cc(N)nc2cc(-c3ccn[nH]3)sc12 [Compound 113, N^7-(pent-3-yl)-2-(1H-pyrazol-5-yl)thieno[3,2-b]pyridine-5,7-diamine] | > 30 | > 100
Nc1cc(NC2CCC(O)CC2)c2sc(-c3ccn[nH]3)cc2n1 (stereo not shown) [Compound 114, 4-((5-amino-2-(1H-pyrazol-5-yl)thieno[3,2-b]pyridin-7-yl)amino)-1-cyclohexanol] | > 30 | > 100
CC(C)(CO)CNc1cc(N)nc2cc(-c3ccn[nH]3)sc12 [Compound 115, 3-((5-amino-2-(1H-pyrazol-5-yl)thieno[3,2-b]pyridin-7-yl)amino)-2,2-dimethyl-1-propanol] | > 30 | > 100
Nc1cc(NCC(F)F)c2sc(-c3ccn[nH]3)cc2n1 [Compound 116, N^7-(2,2-difluoroethyl)-2-(1H-pyrazol-5-yl)thieno[3,2-b]pyridine-5,7-diamine] | > 30 | > 100

Next, values leading:

EC50 (THP1-defNLRP3 cells) [µM] | EC50 (hTLR7) [µM] | Structure (SMILES)
> 30 | > 100 | Cc1cccc(-c2cc3nc(N)cc(NCCCO)c3s2)n1 [Compound 91, 3-((5-amino-2-(6-methylpyridin-2-yl)thieno[3,2-b]pyridin-7-yl)amino)-1-propanol]
> 30 | > 100 | CC(=O)N1CCC(Nc2cc(N)nc3cc(-c4ccn[nH]4)sc23)CC1 [Compound 92, 1-(4-((5-amino-2-(1H-pyrazol-5-yl)thieno[3,2-b]pyridin-7-yl)amino)piperidin-1-yl)ethanone]
> 30 | > 100 | Nc1cc(NCCCO)c2sc(-c3ccccc3)cc2n1 [Compound 93, 3-((5-amino-2-phenylthieno[3,2-b]pyridin-7-yl)amino)-1-propanol]
> 30 | > 100 | CC[C@H](CO)Nc1cc(N)nc2cc(-c3ccn[nH]3)sc12 [Compound 95, (R)-2-((5-amino-2-(1H-pyrazol-5-yl)thieno[3,2-b]pyridin-7-yl)amino)butanol]
> 30 | > 100 | Nc1cc(N[C@@H]2CCC[C@@H]2O)c2sc(-c3ccn[nH]3)cc2n1 [Compound 96, (1S,2R)-2-((5-amino-2-(1H-pyrazol-5-yl)thieno[3,2-b]pyridin-7-yl)amino)cyclopentanol]
> 30 | > 100 | Nc1cc(NCC(F)(F)c2ccccn2)c2sc(-c3ccn[nH]3)cc2n1 [Compound 97, N^7-(2,2-difluoro-2-(pyridin-2-yl)ethyl)-2-(1H-pyrazol-5-yl)thieno[3,2-b]pyridine-5,7-diamine]
> 30 | > 100 | CC1(O)CCN(CCNc2cc(N)nc3cc(-c4ccn[nH]4)sc23)CC1 [Compound 98, 1-(2-((5-amino-2-(1H-pyrazol-5-yl)thieno[3,2-b]pyridin-7-yl)amino)ethyl)-4-methylpiperidine-4-ol]
> 30 | > 100 | CC1(O)CCN(CCCNc2cc(N)nc3cc(-c4ccn[nH]4)sc23)CC1 [Compound 99, 1-(3-((5-amino-2-(1H-pyrazol-5-yl)thieno[3,2-b]pyridin-7-yl)amino)propyl)-4-methylpiperidine-4-ol]
> 30 | > 100 | COCCNc1cc(N)nc2cc(-c3ccn[nH]3)sc12 [Compound 100, N^7-(2-methoxyethyl)-2-(1H-pyrazol-5-yl)thieno[3,2-b]pyridine-5,7-diamine]
> 30 | > 100 | CO[C@H](C)CNc1cc(N)nc2cc(-c3ccn[nH]3)sc12 [Compound 101, (R)—N^7-(2-methoxypropyl)-2-(1H-pyrazol-5-yl)thieno[3,2-b]pyridine-5,7-diamine]
